Data: patent US20170298051A1, “ACTIVATOR OF ADIPONECTIN RECEPTOR” (THE UNIVERSITY OF TOKYO, priority 2013, published 2017)

Columns and labels:
[1] = tested on: AdipoR1; experiment: Measurement of AMPK phosphorylation ability (Assay 2), C2C12 cells with unrelated or AdipoR1 siRNA; assay type: cell-based, Mouse
Method: C2C12 cells (ATCC; CRL-1772, medium; DMEM, 10% Fetal Bovine Serum (FBS)) were cultured in a 12- or 24-well plate until they reached 100% confluency (37° C., 5% CO2). The medium was changed to DMEM, 2.5% Horse Serum (HS) and differentiation was started. The medium (DMEM, 2.5% HS) was replaced two days after the start of differentiation. The medium (DMEM, 2.5% HS) was further replaced two days after that.
On the next day following the replacement of the medium, first, 1 μL of Lipofectamine RNAiMAX and 50 μL of OPTI-MEM were mixed, and then 5 μM siRNA (sense siRNA sequence: […]tt (SEQ ID NO: 1)) and 50 μL of OPTI-MEM were mixed and the resultants were left to stand at room temperature for 5 minutes. And then, the 1 μL Lipofectamine RNAiMAX/50 μL OPTI-MEM and the 5 μM siRNA/50 μL OPTI-MEM were mixed, and the resultant was left to stand at room temperature for 10 minutes, which was added to the cells.
After 5 minutes, the medium (DMEM, 2.5 HS) was replaced, and after starvation on the next day, a test compound listed in Table 12 was added thereto. After 10 minutes, the medium was discarded and the plate was frozen with liquid nitrogen.
The respective amounts of pAMPK and AMPK were determined in the same way as in the above Assay 1.

[2] = target: T1, AdipoR1 (Mus musculus, UniProt Q91VH1); experiment: Measurement of AMPK phosphorylation ability (Assay 1), differentiated C2C12 cells, Western blotting; assay type: cell-based; settings: 10 μM, 10 minutes
T1 construct: C2C12 cells (ATCC; CRL-1772, medium; host or cells: differentiated C2C12
T1 sequence (Q91VH1 1-375): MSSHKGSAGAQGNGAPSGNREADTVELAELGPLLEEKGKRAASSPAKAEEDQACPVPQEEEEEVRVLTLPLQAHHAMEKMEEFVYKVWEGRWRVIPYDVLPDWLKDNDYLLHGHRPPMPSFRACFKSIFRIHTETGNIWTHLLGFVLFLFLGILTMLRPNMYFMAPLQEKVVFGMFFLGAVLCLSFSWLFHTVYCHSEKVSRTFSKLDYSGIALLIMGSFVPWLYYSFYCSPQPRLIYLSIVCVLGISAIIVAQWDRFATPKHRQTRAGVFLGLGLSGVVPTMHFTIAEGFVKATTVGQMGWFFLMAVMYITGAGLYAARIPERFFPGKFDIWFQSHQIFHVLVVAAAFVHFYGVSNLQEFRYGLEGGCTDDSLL
Method: The AMPK phosphorylation ability of the respective compounds according to the present invention was measured by using differentiated C2C12 cells or HEK 293T cells.
C2C12 cells (ATCC; CRL-1772, medium; DMEM, 10% FBS) were cultured in a 12- or 24-well plate until they reached 100% confluency (37° C., 5% CO2).
The medium was changed to 2.5% Horse Serum (HS) and differentiation was started. The medium (DMEM, 2.5% HS) was replaced every three days.
After starvation, a test compound listed in Table 12 (concentration: 10 μM) was added thereto, and after 10 minutes, the medium was discarded and the plate was frozen with liquid nitrogen.
To the 12- or 24-well cell plate which had been frozen was added 100 or 150 μL of Cell lysis buffer pH 7.4 (50 mM HEPES (pH 7.4), 2 mM sodium orthovanadate, 10 mM sodium pyrophosphate, 10 mM NaF, 2 mM EDTA, 2 mM EGTA, 0.1% (v/v) NP-40, 0.2 mM PMSF), and the cells were scraped off with a cell scraper, suspended and transferred into a micro centrifugal tube. And then, the cells were ultrasonically crushed (1 second×3 times) with a sonicator. Centrifugation was performed at 4° C. at 15,000 rpm for 15 minutes, and the supernatant was recovered into a new tube.
To 100 μL of the supernatant was added 25 μL of 5× sample buffer (280 mM Tris-HCl (pH 6.9), 40% glycerol, 10% (3-mercaptoethanol, 13% SDS, a small amount of bromophenol blue) and mixed together. The rest of the supernatant was used for protein quantification, and the protein concentrations were uniformed by adding 1× sample buffer depending on the concentration of each sample.
An electrophoresis chamber was filled with 1× SDS buffer (25 mM Tris-HCl, 250 mM glycine, 0.1% SDS), and the sample was applied to a well of polyacrylamide gel. Electrophoresis was performed until the bromophenol blue in the sample reached to the bottom of the gel.
A filter paper was soaked in 1× Transfer buffer sufficiently, above which the PVDF membrane and the gel after electrophoresis were stacked in this order, and thereabove a filter paper which had been soaked in 1× Transfer buffer sufficiently was further stacked, from which an air was removed and the resultant was set in semi-dry type transfer apparatus and transferred (7V, 35 minutes).
An unnecessary portion of the blotted membrane was cutoff, and the rest was immediately soaked in blocking buffer (5% skimmed milk in Rinse buffer), and shaken at room temperature at 40 rpm for 3 hours.
After blocking, the membrane was transferred into Rinse buffer, and washed at room temperature for 10 minutes while shaking. The membrane was soaked in a primary antibody solution (AMPK alpha Antibody (Cell signaling; #2532) 1/1,000 in Rinse buffer, Phospho-AMPK alpha (Thr172) (40H9) antibody (Cell signaling; #2535) 1/1,000 in Rinse buffer), and shaken at 4° C. at 40 rpm overnight.
The membrane was soaked in a secondary antibody solution (goat anti-rabbit IgG-HRP Antibody (Santa Cruz; sc-2030) 1/2,000 in Rinse buffer), and shaken at room temperature at 40 rpm for 1 hour.
After the membrane was washed for 45 minutes in the same way as after the primary antibody reaction, the membrane was soaked in a chemiluminescent reaction solution (ECL Western Blotting Detection Reagents, GE Healthcare) for about 1 minute. An excess of the reaction solution was removed, and then the membranes were arranged on a transparent film and sandwiched with it, with which an X-ray film was exposed in a darkroom (for about several seconds to 60 seconds) to develop the film.
The X-ray film was scanned to take the image, for which the band was measured by using the image analysis software “Image J” to determine the respective amounts of pAMPK and AMPK.

SMILES | pAMPK/AMPK (%) [2] [%] | pAMPK/AMPK (ratio) siRNA, AdipoR1 siRNA [1] [ratio] | pAMPK/AMPK (ratio) siRNA, unrelated siRNA [1] [ratio]
COc1ccc(C(=O)N2CCN(Cc3ccc(C(F)(F)F)cc3)CC2)cc1OC [No. 191294] | 89.56 | 3.54 | 3.25
O=C(NCc1ccncc1)c1ccc(OC2CCN(Cc3ccoc3)CC2)cc1 [No. 196462] | 82.72 | 2.58 | 2.06
Cc1ccccc1CN1CCC(Oc2ccc(C(=O)NCc3ccccn3)cc2)CC1 [No. 198637] | 87.39 | 2.51 | 2.24
CC(C)(C)CN1CCC(Oc2ccc(C(=O)NCCc3ccncc3)cc2Cl)CC1 [No. 200737] | 83.71 | 2.68 | 2.13
CC(C)N(Cc1cnn(C)c1)C(=O)c1ccc(OC2CCN(Cc3ccccn3)CC2)cc1 [No. 206685] | 90.15 | 2.39 | 1.76
CCOCCCNC(=O)c1ccc(OC2CCN(CC(C)(C)C)CC2)c(Cl)c1 [No. 209705] | 81.28 | 1.81 | 1.52
O=C(NC1CCCC1)c1ccc(OC2CCN(Cc3cccc(O)c3)CC2)c(Cl)c1 [No. 251327] | 83.18 | 3.15 | 2.85
O=C(NCC[C@@H]1C[C@@H]2C=C[C@H]1C2)c1ccc(OC2CCN(Cc3ccccn3)CC2)cc1 [No. 260544] | 81.90 | 4.12 | 3.79
O=C(NCCc1ccc(Cl)cc1)c1ccc(OC2CCN(Cc3ccccn3)CC2)cc1 [No. 264785] | 80.62 | 3.58 | 3.70
O=C(NC1CCCC1)c1ccc(OC2CCN(Cc3ccoc3)CC2)c(Cl)c1 [No. 268508] | 80.12 | 2.87 | 2.58
C#CCN(Cc1ccco1)C(=O)c1ccc(OC2CCN(Cc3ccccn3)CC2)cc1 [No. 268949] | 86.36 | 2.82 | 3.10
CC#CCN(Cc1ccco1)C(=O)c1ccc(OC2CCN(Cc3ccccn3)CC2)cc1 [No. 272350] | 84.20 | 2.54 | 2.03
Cc1cccc(CN2CCC(Oc3ccc(C(=O)NC4CCCC4)cc3Cl)CC2)n1 [No. 492284] | 90.14 | 1.88 | 2.05

Further lines, with some results ahead:

pAMPK/AMPK (%) [2] [%] | SMILES | pAMPK/AMPK (ratio) siRNA, AdipoR1 siRNA [1] [ratio] | pAMPK/AMPK (ratio) siRNA, unrelated siRNA [1] [ratio]
99.10 | COCc1ccc(CN2CCC(Oc3ccc(C(=O)NC4CCCC4)cc3Cl)CC2)o1 [No. 195831] | 2.98 | 2.88
89.63 | COCCNC(=O)c1ccc(OC2CCN(Cc3ccc(OC)cc3F)CC2)c(Cl)c1 [No. 197248] | 2.55 | 2.09
85.37 | COCCNC(=O)c1ccc(OC2CCN(Cc3ccc(C)s3)CC2)c(Cl)c1 [No. 197372] | 1.96 | 1.78
93.79 | COCCNC(=O)c1ccc(OC2CCN([C@@H](C)COc3ccccc3)CC2)c(Cl)c1 [No. 211156] | 2.59 | 2.36
91.97 | CCOc1cccc(CN2CCC(Oc3ccc(C(=O)NCCOC)cc3Cl)CC2)c1 [No. 214617] | 2.78 | 2.21
91.22 | COc1ccccc1CN1CCC(Oc2ccc(C(=O)NC3CCCC3)cc2Cl)CC1 [No. 272299] | 2.60 | 2.83
81.64 | COCCNC(=O)c1ccc(OC2CCN(Cc3cc(OC)ccc3F)CC2)c(Cl)c1 [No. 274971] | 2.51 | 2.38
89.26 | CCc1ccc(CN2CCC(Oc3ccc(C(=O)NCCOC)cc3Cl)CC2)cc1 [No. 466151] | 1.94 | 2.22
85.03 | COCCNC(=O)c1ccc(OC2CCN(Cc3cc4ccccc4o3)CC2)c(Cl)c1 [No. 473771] | 2.39 | 1.67
81.88 | COCCNC(=O)c1ccc(OC2CCN(Cc3cccc4nonc34)CC2)c(Cl)c1 [No. 484140] | 2.30 | 2.34
